This note sets out measurements from patent US11548893B2 (priority 2017, dated 2023).

pEC50: −log10 of the molar value.

Series [1] has as its system EBOV (mucin-deleted glycoprotein, VSV pseudotype). Nature of the series: microbe, parasite or virus in culture. Format: cell-based, Zaire ebolavirus. Particulars: Zaire ebolavirus, Vero, 24 h, read-out: EC50 Pseudotype Assays EBOV.
Series [2] has as its system BDBV (mucin-deleted glycoprotein, VSV pseudotype). The experiment in a line: microbe, parasite or virus in culture. Format: cell-based, Bundibugyo ebolavirus. The note with it: Vesicular stomatitis virus, Vero, 24 h, read-out: EC50 Pseudotype Assays BDBV.
The subject of series [3] is SUDV (glycoprotein, VSV pseudotype). Nature of the series: microbe, parasite or virus in culture. In kind it is cell-based, Sudan ebolavirus. The note with it: Vesicular stomatitis virus, Vero, 24 h, read-out: EC50 Pseudotype Assays SUDV.
Series [4] can be described thus: in vitro. The note with it: African green monkey, Cytotox CC50.

Broadly, the pEC50 is the negative decadic logarithm of the EC50, by convention in mol/L. As usually defined, the CC50 is the concentration giving 50% cytotoxicity. A lower CC50 goes with harm at low concentration. As to `CC12CC3CC(C(=O)N4CCC[C@H](N)C4)(C1)CC(c1ccccc1)(C3)C2` (mixture of isomers) [Example A56], the negative-log EC50 (pEC50) was 6.97 in series [1], 7.12 in series [2] and 7.22 in series [3]. Besides, the cytotoxic concentration (CC50) in series [4] turned out to be 9090 nM.
The matching figures for `CCC12CC3CC(CN[C@H]4CCN[C@@H](C)C4)(C1)CC(c1ccccc1)(C3)C2` (some centres unmarked) [Example A63]: 6.14, 6.36, 6.13 and 1470 nM.
The matching figures for `C[C@@H]1C[C@H](NC(=O)C23CC4C[C@@](C)(C2)C[C@](c2ccccc2)(C4)C3)CCN1` [Example B14]: 7.60, 6.60, 6.14 and 14400 nM.
The matching figures for `CCC12CC3CC(CNC4CCNCC4)(C1)CC(c1ccccc1)(C3)C2` (centres unmarked) [Example A62]: 6.05, 6.30, 6.27 and 1620 nM.
Consider `CCC12CC3CC(CN[C@H]4CC[C@H](CN)CC4)(C1)CC(c1ccccc1)(C3)C2` (some centres unmarked) [Example A64], for which the negative logarithm of the EC50 (pEC50) in series [1] is 6.21; in series [2], 6.52; in series [3], 6.28. Moreover, the CC50 in series [4] was 1240 nM.
The matching figures for `CC12CC3CC(C(=O)N4CCC[C@@H](N)C4)(C1)CC(c1ccccc1)(C3)C2` (mixture of isomers) [Example A57]: 7.26, 6.77, 6.66 and 7880 nM.
The matching figures for `CCC12CC3CC(C(=O)N4CC[C@H](N)[C@@H](F)C4)(C1)CC(c1ccccc1)(C3)C2` (mixture of isomers) [Example A24]: 6.69, 6.60, 6.51 and 11200 nM.
The matching figures for `CC12CC3CC(C(=O)N4CCCNCC4)(C1)CC(c1ccccc1)(C3)C2` (racemic) [Example A34]: 7.05, 6.92, 6.74 and 23600 nM.
On to `CC1CC(N)CCN1C(=O)C12CC3CC(C)(C1)CC(c1ccccc1)(C3)C2` (racemic) [Example A40], for which the negative logarithm of the EC50 (pEC50) is 7.16 in series [1], 6.78 in series [2] and 6.35 in series [3]. Also, the CC50 in series [4] was 24600 nM.
Turning to `CC1(C)CN(C(=O)C23CC4C[C@](C)(C2)C[C@@](c2ccccc2)(C4)C3)CCC1N` (some centres unmarked) [Example C8], the pEC50 is 7.01 in series [1], 6.91 in series [2] and 6.26 in series [3]. In series [4], this compound displayed a half-maximal cytotoxic concentration (CC50) of 12400 nM.
The matching figures for `CC1(C)CN(C(=O)C23CC4C[C@@](C)(C2)C[C@](c2ccccc2)(C4)C3)CC[C@H]1N` [Example B12]: 7.02, 6.98, 6.70 and 13300 nM.
With `CC1(C)CN(CC23CC4C[C@](C)(C2)C[C@@](c2ccccc2)(C4)C3)CC[C@H]1N` [Example C71], the negative-log EC50 (pEC50) in series [1], in series [2] and in series [3] was less than 6.00 throughout.
As for `CC1(C)CN(CC23CC4C[C@](C)(C2)C[C@@](c2ccccc2)(C4)C3)CC[C@@H]1N` [Example C70], the negative logarithm of the EC50 (pEC50) in series [1] was less than 6.00; in series [2] it was 5.99; in series [3], 5.89.
For `CC12CC3CC(C(=O)N4CC5(CCNCC5)C4)(C1)CC(c1ccccc1)(C3)C2` (racemic) [Example A44], the pEC50 in series [1] is 7.35; in series [2], 7.12; in series [3] it was 6.61. The compound further had a cytotoxic concentration (CC50) in series [4] of 27200 nM.
The matching figures for `CC12CC3CC(C(=O)N4C5CCC4CC(N)C5)(C1)CC(c1ccccc1)(C3)C2` (racemic) [Example A42]: 7.48, 6.72, 6.34 and 11800 nM.
The matching figures for `CC12CC3CC(C(=O)N4CCC5(CCNCC5)CC4)(C1)CC(c1ccccc1)(C3)C2` (racemic) [Example A50]: 7.21, 7.05, 6.80 and 8780 nM.
Consider `C[C@@]12CC3CC(C(=O)N4CCC(N)C5(CC5)C4)(C1)C[C@](c1ccccc1)(C3)C2` (some centres unmarked) [Example C9], for which the pEC50 was 6.57 in series [1], 6.82 in series [2] and 6.21 in series [3].
As for `CC1(N)CCN(C(=O)C23CC4CC(C)(C2)CC(c2ccccc2)(C4)C3)CC1` (racemic) [Example A37], the pEC50 was 7.24 in series [1], 7.23 in series [2] and 6.66 in series [3]. For the same compound, the cytotoxic concentration (CC50) in series [4] was 10900 nM.
With `CC12CC3CC(C(=O)N4CC[C@@H](N)C4)(C1)CC(c1ccccc1)(C3)C2` (mixture of isomers) [Example A55], the pEC50 is 6.85 in series [1], 6.80 in series [2] and 6.43 in series [3]. For the same compound, the CC50 in series [4] is 12600 nM.
The matching figures for `CCC1CNCCN1C(=O)C12CC3CC(C)(C1)CC(c1ccccc1)(C3)C2` (racemic) [Example A36]: 6.77, 6.64, 6.89 and 8310 nM.
As for `CC1(C)CN(CC23CC4C[C@@](C)(C2)C[C@](c2ccccc2)(C4)C3)CC[C@H]1N` [Example B71], the negative logarithm of the EC50 (pEC50) in series [1] is 5.93; in series [2] it was 5.99; in series [3], less than 6.00.
For `CCOCC12CC3CC(C(=O)N[C@H]4CC[C@@H](N)CC4)(C1)CC(c1ccccc1)(C3)C2` (mixture of isomers) [Example A29], the pEC50 in series [1] is 7.21; in series [2], 6.10; in series [3], less than 6.00. The compound also yielded a CC50 in series [4] of 16300 nM.
The matching figures for `CC12CC3CC(C(=O)N4C[C@H]5CNC[C@H]5C4)(C1)CC(c1ccccc1)(C3)C2` (mixture of isomers) [Example A45]: 6.69, 6.52, 6.48 and 30600 nM.
The matching figures for `C[C@@]12CC3CC(C(=O)NC4CCNCC4)(C1)C[C@](c1ccccc1)(C3)C2` [Example C1]: 6.62, 6.73, 6.16 and 16300 nM.
The matching figures for `CC12CC3CC(C(=O)N4CCCC(N)CC4)(C1)CC(c1ccccc1)(C3)C2` (racemic) [Example A43]: 6.83, 6.90, 6.43 and 13000 nM.
With `CC12CC3CC(C(=O)N4CCC(N)(CO)CC4)(C1)CC(c1ccccc1)(C3)C2` (racemic) [Example A46], the negative-log EC50 (pEC50) in series [1] is 7.39; in series [2] it was 7.32; in series [3], 7.05. Further, the CC50 in series [4] was found to be 12200 nM.
On to `c1ccc(C23CC4CC(CC(CN5CCNCC5)(C4)C2)C3)cc1` [Example A67], for which the negative logarithm of the EC50 (pEC50) in series [1], in series [2] and in series [3] was less than 6.00 throughout.
Consider `CC12CC3CC(C(=O)N4CC5(CNC5)C4)(C1)CC(c1ccccc1)(C3)C2` (racemic) [Example A47], for which the negative logarithm of the EC50 (pEC50) is 7.19 in series [1], 6.62 in series [2] and 6.47 in series [3]. Besides, in series [4], it took 42300 nM to reach half-maximal cytotoxicity (CC50).
With `CCC12CC3CC(C(=O)NC4CCC5(CC4)CNC5)(C1)CC(c1ccccc1)(C3)C2` (racemic) [Example A27], the results for the pEC50 in series [1], in series [2] and in series [3] were 6.87, 6.25 and 5.76, respectively. The compound further gave a CC50 in series [4] of 7900 nM.
The matching figures for `CC12CC3CC(C(=O)N[C@@H]4CCCN5CCC[C@H]45)(C1)CC(c1ccccc1)(C3)C2` (mixture of isomers) [Example A59]: 7.59, 6.59, 6.40 and 12700 nM.
For the compound `N#CC12CC3CC(C(=O)N[C@H]4CC[C@H](N)CC4)(C1)CC(c1ccccc1)(C3)C2` (mixture of isomers) [Example A53], the pEC50 was 6.17 in series [1], less than 6.00 in series [2] and less than 6.00 in series [3].
Consider `CC12CC3CC(C(=O)N4CCC5(CCN5)CC4)(C1)CC(c1ccccc1)(C3)C2` (racemic) [Example A51], for which the results for the pEC50 in series [1], in series [2] and in series [3] were 6.80, 6.64 and 6.28, respectively.
As to `CC12CC3CC(C(=O)NC45CCN(CC4)CC5)(C1)CC(c1ccccc1)(C3)C2` (racemic) [Example A60], the pEC50 in series [1] was 7.46; in series [2], 6.92; in series [3] it was 6.48. This compound displayed a 50% cytotoxic concentration (CC50) in series [4] of 23100 nM.
The matching figures for `CC1CN(C(=O)C23CC4CC(C)(C2)CC(c2ccccc2)(C4)C3)CCC1N` (racemic) [Example A39]: 7.34, 7.04, 6.68 and 13200 nM.
The matching figures for `C[C@]12CC3CC(C(=O)N4CC5(CC(N)C5)C4)(C1)C[C@@](c1ccccc1)(C3)C2` [Example B11]: 7.19, 6.98, 6.59 and 23600 nM.
Regarding `CCC12CC3CC(CNC4CCNCC4(C)C)(C1)CC(c1ccccc1)(C3)C2` (centres unmarked) [Example A61], the pEC50 is 6.10 in series [1], 6.12 in series [2] and 6.18 in series [3]. In series [4], the midpoint of cytotoxicity, the CC50, lay at 1240 nM.
As for `CC1(C)CN(CC23CC4C[C@@](C)(C2)C[C@](c2ccccc2)(C4)C3)CC[C@@H]1N` [Example B70], the pEC50 in series [1] was 6.20; in series [2], 6.03; in series [3] it was 5.99.
The matching figures for `C[C@@]12CC3CC(C(=O)N4CC5(CC(N)C5)C4)(C1)C[C@](c1ccccc1)(C3)C2` [Example C11]: 6.24, 6.50 and 6.02.
